Laboratory results taken from patent publication US11339171B2, “MDM2 inhibitors” (Gan & Lee Pharmaceuticals, priority 2017, dated 2022).
Where “and” joins values, the source holds several entries; their conditions need not be identical. Equal entries are not always repeated. Where two headings read alike, the source gives them in different places.

How the values were obtained:
[1] = test system: human osteosarcoma cell line SJSA-1; assay: Inhibition of proliferation of human osteosarcoma cell line SJSA-1 (DAPI staining, In Cell Analyzer); conditions: Homo sapiens, SJSA-1, 72 h, read-out: IC50 (nM), inhibitory activity on proliferation of human osteosarcoma cell line SJSA-1, SJSA-1, incubated 72 h
MDM2 = target: T1, MDM2 (Homo sapiens, UniProt Q00987); assay: Inhibition test of MDM2-P53 (GST-MDM2, Biotin-P53, Anti-GST-Tb, SA-XL665); format: binding
T1 construct: made in house
T1 sequence (Q00987 whole entry): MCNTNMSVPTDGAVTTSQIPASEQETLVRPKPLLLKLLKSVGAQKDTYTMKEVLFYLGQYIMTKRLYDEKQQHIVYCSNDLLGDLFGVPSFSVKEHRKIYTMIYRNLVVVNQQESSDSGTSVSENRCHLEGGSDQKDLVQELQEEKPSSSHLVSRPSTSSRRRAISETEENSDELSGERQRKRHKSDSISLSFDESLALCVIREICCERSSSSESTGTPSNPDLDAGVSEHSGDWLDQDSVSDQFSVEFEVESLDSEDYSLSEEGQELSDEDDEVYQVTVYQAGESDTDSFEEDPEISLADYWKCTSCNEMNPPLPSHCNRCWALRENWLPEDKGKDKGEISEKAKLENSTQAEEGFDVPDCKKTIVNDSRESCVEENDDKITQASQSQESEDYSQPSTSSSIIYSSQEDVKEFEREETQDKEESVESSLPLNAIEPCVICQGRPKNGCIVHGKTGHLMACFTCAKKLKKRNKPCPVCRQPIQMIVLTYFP
Summary of the method: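 Binding was measured by TR-FRET with GST-MDM2 at 4 nM final in PBS with 0.1% BSA, 5 mM DTT and 1 mM AEBSF. Compounds were tested as twelve-point 5-fold dilutions and incubated with the detection mix for 90 min at 25 °C with shaking before plate-reader reading and curve fitting.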

[2] = Pharmacokinetics in ICR mice after intravenous and intragastric administration; format: in vivo; conditions: for MRT last: read-out: MRT(0-t); for MRT inf: read-out: MRT(0-∞); for Vd: read-out: Vz; for half-life: read-out: t1/2 (converted)
Summary of the method: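 Male ICR mice (6-9 weeks, 20-30 g, n=3 per route) were fasted overnight and dosed at 2 mg/kg i.v. or 5 mg/kg intragastrically in 5% DMSO/40% PEG400/55% (10% HP-β-CD in saline). Plasma levels were measured by LC-MS/MS after protein precipitation (LLOQ 1 ng/mL), and non-compartmental PK parameters were calculated.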

[3] = ICR mice, IV 2 mg/kg, individual animal, 2 mg/kg
[4] = ICR mice, PO 5 mg/kg, individual animal, 5 mg/kg
[5] = male, ICR, mouse, plasma, iv, 2 mg/kg, ICR mice, IV 2 mg/kg, individual animal
[6] = male, ICR, mouse, plasma, iv, 2 mg/kg, ICR mice, IV 2 mg/kg, mean of 3 animals
[7] = male, ICR, mouse, plasma, po, 5 mg/kg, ICR mice, PO 5 mg/kg, individual animal
[8] = male, ICR, mouse, plasma, po, 5 mg/kg, ICR mice, PO 5 mg/kg, mean of 3 animals

Question: For `COc1cc(OC)c(-c2nc3c(n2C(C)C)[C@@]2(C(=O)Nc4cc(Cl)ccc42)N(c2cccc(Cl)c2)C3=O)cn1` [Example S-115, (S)-6-chloro-5′-(3-chlorophenyl)-2′-(4,6-dimethoxypyridin-3-yl)-3′-isopropyl-3′H-spiro[dihydroindole-3,4′-pyrrolo[3,4-d]imidazole]-2,6′(5′H)-dione], which IC50 [1] is on record?
Answer: 3360 nM

Question: And the IC50 (MDM2)?
Answer: 0.0013 µM

Question: And the “AUC(0-t)” value [2, 3]?
Answer: 2278.66 ng·h/mL and 2987.42 ng·h/mL

Question: What about the “AUC(0-∞)” value [2, 3] of the same compound?
Answer: 2289.66 ng·h/mL and 3011.30 ng·h/mL

Question: What about the CL [2, 3] of the same compound?
Answer: 14.56 mL/min/kg and 11.07 mL/min/kg

Question: What about the Cmax [2, 3] of the same compound?
Answer: 2549.96 ng/mL and 4136.98 ng/mL

Question: What about the “MRT(0-t)” value [2, 3] of the same compound?
Answer: 47.4 min and 49.2 min

Question: And the “MRT(0-∞)” value [2, 3]?
Answer: 49.2 min and 52.2 min

Question: What about the Vz [2, 3] of the same compound?
Answer: 1.01 L/kg and 0.87 L/kg

Question: And the t1/2 [2, 3]?
Answer: 48 min

Question: What about the “AUC(0-t)” value [2, 4] of the same compound?
Answer: 2355.30 ng·h/mL and 2985.59 ng·h/mL

Question: What about the “AUC(0-∞)” value [2, 4] of the same compound?
Answer: 2377.88 ng·h/mL and 3066.25 ng·h/mL

Question: What about the Cmax [2, 4] of the same compound?
Answer: 2135.46 ng/mL and 834.66 ng/mL and 601.29 ng/mL

Question: What about the “MRT(0-t)” value [2, 4] of the same compound?
Answer: 82.2 min and 128 min and 193 min

Question: And the “MRT(0-∞)” value [2, 4]?
Answer: 84.6 min and 132 min and 203 min

Question: What about the Tmax [2, 4] of the same compound?
Answer: 30 min and 60 min and 240 min

Question: And the t1/2 [2, 4]?
Answer: 71.4 min and 67.2 min

Question: What about the AUC(0-inf) [2, 5] of the same compound?
Answer: 2590 ng·h/mL

Question: What about the clearance [2, 5] of the same compound?
Answer: 12.9 mL/min/kg

Question: What about the AUC(0-t) ([2]; male, ICR, mouse, plasma, iv, 2 mg/kg, ICR mice, IV 2 mg/kg, individual animal, read-out: AUC(0-t)) of the same compound?
Answer: 2580 ng·h/mL

Question: And the Cmax ([2]; male, ICR, mouse, plasma, iv, 2 mg/kg, ICR mice, IV 2 mg/kg, individual animal, read-out: Cmax)?
Answer: 3000 ng/mL

Question: What about the MRT last [2, 5] of the same compound?
Answer: 54 min

Question: And the MRT inf [2, 5]?
Answer: 56.4 min

Question: What about the Tmax ([2]; male, ICR, mouse, plasma, iv, 2 mg/kg, ICR mice, IV 2 mg/kg, individual animal, read-out: Tmax) of the same compound?
Answer: 4.8 min

Question: And the Vd [2, 5]?
Answer: 1 L/kg

Question: What about the half-life [2, 5] of the same compound?
Answer: 54 min

Question: What about the AUC(0-inf) [2, 6] of the same compound?
Answer: 2630 ng·h/mL

Question: And the clearance [2, 6]?
Answer: 12.8 mL/min/kg

Question: What about the AUC(0-t) ([2]; male, ICR, mouse, plasma, iv, 2 mg/kg, ICR mice, IV 2 mg/kg, mean of 3 animals, read-out: AUC(0-t)) of the same compound?
Answer: 2610 ng·h/mL

Question: And the Cmax ([2]; male, ICR, mouse, plasma, iv, 2 mg/kg, ICR mice, IV 2 mg/kg, mean of 3 animals, read-out: Cmax)?
Answer: 3230 ng/mL

Question: What about the MRT last [2, 6] of the same compound?
Answer: 50.4 min

Question: And the MRT inf [2, 6]?
Answer: 52.8 min

Question: And the Tmax ([2]; male, ICR, mouse, plasma, iv, 2 mg/kg, ICR mice, IV 2 mg/kg, mean of 3 animals, read-out: Tmax)?
Answer: 4.98 min

Question: And the Vd [2, 6]?
Answer: 0.96 L/kg

Question: And the half-life [2, 6]?
Answer: 52.2 min

Question: What about the AUC(0-inf) [2, 7] of the same compound?
Answer: 3670 ng·h/mL

Question: What about the AUC(0-t) ([2]; male, ICR, mouse, plasma, po, 5 mg/kg, ICR mice, PO 5 mg/kg, individual animal, read-out: AUC(0-t)) of the same compound?
Answer: 3660 ng·h/mL

Question: What about the half-life [2, 7] of the same compound?
Answer: 64.2 min

Question: And the AUC(0-inf) [2, 8]?
Answer: 3040 ng·h/mL

Question: What about the AUC(0-t) ([2]; male, ICR, mouse, plasma, po, 5 mg/kg, ICR mice, PO 5 mg/kg, mean of 3 animals, read-out: AUC(0-t)) of the same compound?
Answer: 3000 ng·h/mL

Question: And the Cmax ([2]; male, ICR, mouse, plasma, po, 5 mg/kg, ICR mice, PO 5 mg/kg, mean of 3 animals, read-out: Cmax)?
Answer: 1190 ng/mL

Question: What about the MRT last [2, 8] of the same compound?
Answer: 134 min

Question: And the MRT inf [2, 8]?
Answer: 140 min

Question: And the Tmax ([2]; male, ICR, mouse, plasma, po, 5 mg/kg, ICR mice, PO 5 mg/kg, mean of 3 animals, read-out: Tmax)?
Answer: 110 min

Question: What about the half-life [2, 8] of the same compound?
Answer: 67.2 min

Question: And the AUC(0-t) ([2]; male, ICR, mouse, plasma, po, 5 mg/kg, oral intragastric administration 5 mg/kg, read-out: AUC0-t)?
Answer: 3000 ng·h/mL

Question: What about the bioavailability ([2]; male, mouse, plasma, ICR mice, PO 5 mg/kg vs IV 2 mg/kg, from mean values, read-out: F* (bioavailability)) of the same compound?
Answer: 45.9%
